Test results published in US6432383B1, “Method for administering insulin” (Generex Pharmaceuticals Incorporated, priority 2000, dated 2002).

Test system: healthy non-diabetic human volunteers
Assay: Blood glucose in fasted healthy non-diabetic volunteers, injected vs oral insulin (Example 1)
Format: in vivo
Design: unit not given here
Conditions: sub-cutaneous injection 10 units, avg of 5 fasted healthy volunteers
Procedure: In one set of tests, five healthy non-diabetic human volunteers were tested with insulin, by injection. In another set of tests the volunteers were tested with insulin, taken orally. The volunteers fasted from midnight prior to the test, with no food being taken during the 4 hour study.
On the first day, the volunteers received 10 units insulin by injection (regular fast acting insulin, available from Eli Lilly). On the second day, the volunteers received 100 units (1 mL volume per drop, approximately 20 drops) of the above-prepared oral insulin (10 times the injection dose). In both tests, blood glucose levels were monitored every 15 minutes by Bayer's Glucometer Elite.

insulin [regular fast acting insulin]
Blood glucose levels (0 min): 5.8
Blood glucose levels (15 min): 5.8
Blood glucose levels (30 min): 5.4
Blood glucose levels (60 min): 5.0
Blood glucose levels (75 min): 4.6
Blood glucose levels (90 min): 4.3
Blood glucose levels (120 min): 3.8
Blood glucose levels (150 min): 3.6
Blood glucose levels (180 min): 3.4
Blood glucose levels (210 min): 4.2
Blood glucose levels (240 min): 4.5
